Reference: patent publication US20240238305A1, “FORMULATIONS OF 3-((3-(4-(2-(ISOBUTYLSULFONYL)PHENOXY)-3-(TRIFLUOROMETHYL)PHENYL)-1,2,4-OXADIAZOL-5-YL)METHYL)-5,5-DIMETHYL-1-(2-MORPHOLINOETHYL)IMIDAZOLIDINE-2,4-DIONE” (Novartis AG, priority 2021, published 2024)
In brackets after ≈: the same amount, converted by molar mass. Several values for one entry are separate records, joined by “and”; a condition that tells them apart may be missing. Equal entries are not always repeated.

Columns and labels:
[1] = Solubility of Compound 1 in aqueous buffers; assay type: physicochemical
Text: 3-((3-(4-(2-(isobutylsulfonyl)phenoxy)-3-(trifluoromethyl)phenyl)-1,2,4-oxadiazol-5-yl)methyl)-5,5-dimethyl-1-(2-morpholinoethyl)imidazolidine-2,4-dione (“Compound 1”) is an LXR agonist having biological activity that makes the compound useful for treating ocular diseases such as MGD (see, e.g., Example 3). However, its physical properties make formulating Compound 1 for therapeutic use (e.g., in human subjects) difficult. Compound 1 is poorly water soluble, making it difficult to formulate compositions of Compound 1 with desired concentrations of Compound 1 for therapeutic use. […] Moreover, Compound 1 has a melting temperature of only 118° C., which makes heat sterilization of Compound 1 difficult. In spite of these challenges, formulations of Compound 1 which can be used, for example, in the treatment of ocular diseases and disorders such as dry eye disease and MGD, have been developed.

[2] = Stability of Compound 1 in different excipients, 3 months; assay type: physicochemical; conditions: for HPLC (% Remaining): initial purity 99.19%
Experimental: The stability of Compound 1 in different excipients was assessed.

[3] = Solubility of Compound 1 in different excipients; assay type: physicochemical
Experimental: The solubility of Compound 1 in different excipients was assessed.

[4] = tested on: rat meibum; test: In vivo measurement of lowered meibum melting temperature; parameters: species or system Sprague Dawley rats; conditions: rats
Experimental: The lowering of rat meibum melting temperature by Compound 1 was measured in naive Sprague Dawley rats. The test animals were administered either vehicle, or a suspension of 1% of Compound 1, as eye drops twice a day for fourteen days. The rat meibum was collected after administration of the compounds and analyzed by differential scanning calorimetry to measure the melting point. The lowering of meibum melting point in rats administered Compound 1 was compared to the vehicle.
Melting properties of meibum were obtained using differential scanning calorimetry thermograms, recorded on a TA Discovery Q5000 (ThermoAnalytical). Samples were sealed in standard 40 μl aluminum pans and subjected to a heat-cool-heat cycle with melting temperatures being recorded on the second heating ramp. The samples were first heated to 150° C. at 30K/min then cooled −30° C. at 30K/min. Next, the sample was heated to 75° C. with an underlying heating rate of 2K/min, a period of modulation of 60 seconds and a temperature amplitude of modulation of 1° C. Dry N2 gas, at a flow rate of 50 mL/min was used to purge the DSC equipment during the measurement. Onset of melting and peak temperatures were recorded with peak temperature quoted as the melting point.
Results from the assay are shown Table 3 and in FIG. 4. Results were analyzed using an unpaired t test with Welch's correction.

[5] = Stability of Compound 1 on sterilization (steam, gamma irradiation); assay type: physicochemical
Experimental: The stability of Compound 1 when sterilized by steam (autoclaving) was assessed. […] Gamma irradiation was then assessed as an alternative sterilization technique. Samples of Compound 1 were irradiated with 10-20 kGy or 20-30 kGy of gamma irradiation.

[6] = Wet ball milling: particle size and soluble fraction; assay type: physicochemical; conditions: aqueous with cosolvent or surfactant or cyclodextrin, thermodynamic from solid
Experimental: The effect of wet ball milling on Compound 1 particles size and solubility in Kolliphor® EL, Kolliphor® RH40, and tyloxopol s was assessed. […] Kolliphor® RH 40 appeared to be best wetting agent, with Kolliphor® EL also performing well.

[7] = 0.5% Kolliphor ® EL/0.5% Carbopol ® 974P, 5° C.
[8] = 0.5% Kolliphor ® EL/0.5% Carbopol ® 974P, 25° C.
[9] = 0.5% Kolliphor ® EL/0.5% Carbopol ® 974P, 40° C.
[10] = 0.5% Kolliphor ® EL/0.5% HEC, 5° C.
[11] = 0.5% Kolliphor ® EL/0.5% HEC, 25° C.
[12] = 0.5% Kolliphor ® EL/0.5% HEC, 40° C.
[13] = 0.5% Kolliphor ® RH40/0.5% Carbopol ® 974P, 5° C.
[14] = 0.5% Kolliphor ® RH40/0.5% Carbopol ® 974P, 25° C.
[15] = 0.5% Kolliphor ® RH40/0.5% Carbopol ® 974P, 40° C.
[16] = 0.5% Kolliphor ® RH40/0.5% HEC, 5° C.
[17] = 0.5% Kolliphor ® RH40/0.5% HEC, 25° C.
[18] = 0.5% Kolliphor ® RH40/0.5% HEC, 40° C.

CC(C)CS(=O)(=O)c1ccccc1Oc1ccc(-c2noc(CN3C(=O)N(CCN4CCOCC4)C(C)(C)C3=O)n2)cc1C(F)(F)F [Compound 1, 3-((3-(4-(2-(isobutylsulfonyl)phenoxy)-3-(trifluoromethyl)phenyl)-1,2,4-oxadiazol-5-yl)methyl)-5,5-dimethyl-1-(2-morpholinoethyl)imidazolidine-2,4-dione]
solubility ([1]; 10 mM acetate buffer, aqueous buffer, 10 mM acetate, pH 4, read-out: solubility): 25 µg/mL (≈ 36.8 µM) | solubility ([1]; 10 mM acetate buffer, aqueous buffer, 10 mM acetate, pH 5, read-out: solubility): 1 µg/mL (≈ 1.47 µM) | solubility ([1]; 10 mM phosphate buffer at pH 7): limit of quantification | XRPD (2-Theta) ([2]; 0.5% Carbopol ® 974P, 5° C.): Form | HPLC (% Remaining) ([2]; 0.5% Carbopol ® 974P, 5° C.): 99.19% | XRPD (2-Theta) ([2]; 0.5% Carbopol ® 974P, 25° C.): Form | HPLC (% Remaining) ([2]; 0.5% Carbopol ® 974P, 25° C.): 99.16% | XRPD (2-Theta) ([2]; 0.5% Carbopol ® 974P, 40° C.): Form | HPLC (% Remaining) ([2]; 0.5% Carbopol ® 974P, 40° C.): 99.14% | XRPD (2-Theta) ([2]; 0.5% HEC, 5° C.): Form | HPLC (% Remaining) ([2]; 0.5% HEC, 5° C.): 99.18% | XRPD (2-Theta) ([2]; 0.5% HEC, 25° C.): Form | HPLC (% Remaining) ([2]; 0.5% HEC, 25° C.): 99.20% | XRPD (2-Theta) ([2]; 0.5% HEC, 40° C.): Form | HPLC (% Remaining) ([2]; 0.5% HEC, 40° C.): 99.17% | XRPD (2-Theta) ([2]; 0.5% Kolliphor ® EL, 5° C.): Form | HPLC (% Remaining) ([2]; 0.5% Kolliphor ® EL, 5° C.): 99.18% | XRPD (2-Theta) ([2]; 0.5% Kolliphor ® EL, 25° C.): Form | HPLC (% Remaining) ([2]; 0.5% Kolliphor ® EL, 25° C.): 99.18% | XRPD (2-Theta) ([2]; 0.5% Kolliphor ® EL, 40° C.): Form | HPLC (% Remaining) ([2]; 0.5% Kolliphor ® EL, 40° C.): 99.00% | XRPD (2-Theta) [2, 7]: Form | HPLC (% Remaining) [2, 7]: 99.18% | XRPD (2-Theta) [2, 8]: Form | HPLC (% Remaining) [2, 8]: 99.02% | XRPD (2-Theta) [2, 9]: Form | HPLC (% Remaining) [2, 9]: 97.89% | XRPD (2-Theta) [2, 10]: Form | HPLC (% Remaining) [2, 10]: 99.19% | XRPD (2-Theta) [2, 11]: Form | HPLC (% Remaining) [2, 11]: 99.02% | XRPD (2-Theta) [2, 12]: Form | HPLC (% Remaining) [2, 12]: 98.94% | XRPD (2-Theta) ([2]; 0.5% Kolliphor ® RH40, 5° C.): Form | HPLC (% Remaining) ([2]; 0.5% Kolliphor ® RH40, 5° C.): 99.18% | XRPD (2-Theta) ([2]; 0.5% Kolliphor ® RH40, 25° C.): Form | HPLC (% Remaining) ([2]; 0.5% Kolliphor ® RH40, 25° C.): 99.18% | XRPD (2-Theta) ([2]; 0.5% Kolliphor ® RH40, 40° C.): Form | HPLC (% Remaining) ([2]; 0.5% Kolliphor ® RH40, 40° C.): 99.17% | XRPD (2-Theta) [2, 13]: Form | HPLC (% Remaining) [2, 13]: 99.18% | XRPD (2-Theta) [2, 14]: Form | HPLC (% Remaining) [2, 14]: 99.17% | XRPD (2-Theta) [2, 15]: Form | HPLC (% Remaining) [2, 15]: 98.87% | XRPD (2-Theta) [2, 16]: Form | HPLC (% Remaining) [2, 16]: 99.19% | XRPD (2-Theta) [2, 17]: Form | HPLC (% Remaining) [2, 17]: 99.18% | XRPD (2-Theta) [2, 18]: Form | HPLC (% Remaining) [2, 18]: 99.18% | Physical form ([3]; 0.5% Tween ® 80 pH 7): No change, Form A | Physical form ([3]; 0.5% Tyloxapol pH 7): No change, Form A | Physical form ([3]; 5% HP-β-CD pH 5): No change, Form A | Physical form ([3]; 5% HP-β-CD pH 6): No change, Form A | Physical form ([3]; 5% HP-β-CD pH 7): No change, Form A | Physical form ([3]; 5% HP-γ-CD pH 7): No change, Form A | Physical form ([3]; 5% Kolliphor ® EL pH 5): No change, Form A | Physical form ([3]; 5% Kolliphor ® EL pH 6): No change, Form A | Physical form ([3]; 5% Kolliphor ® EL pH 7): No change, Form A | Physical form ([3]; 5% PEG400 pH 7): No change, Form A | Physical form ([3]; 5% PVP pH 7): No change, Form A | Compound 1 solubility ([3]; 5% Polyvinylpyrrolidone (PVP) pH 7, measured pH 6.97): <LOQ | Physical form ([3]; 10% transcutol pH 7): No change, Form A | Compound 1 solubility ([3]; 10% transcutol pH 7, measured pH 6.99): <LOQ | solubility ([3]; aqueous with cosolvent or surfactant or cyclodextrin, thermodynamic from solid, 0.5% Tween ® 80 pH 7, measured pH 7.1): 78 µg/mL (≈ 115 µM) | solubility ([3]; aqueous with cosolvent or surfactant or cyclodextrin, thermodynamic from solid, 0.5% Tyloxapol pH 7): 34 µg/mL (≈ 50 µM) | solubility ([3]; aqueous with cosolvent or surfactant or cyclodextrin, thermodynamic from solid, 5% HP-β-CD pH 5, measured pH 5.28): 180 µg/mL (≈ 265 µM) | solubility ([3]; aqueous with cosolvent or surfactant or cyclodextrin, thermodynamic from solid, 5% HP-β-CD pH 6, measured pH 6.13): 70 µg/mL (≈ 103 µM) | solubility ([3]; aqueous with cosolvent or surfactant or cyclodextrin, thermodynamic from solid, 5% HP-β-CD pH 7, measured pH 7.03): 50 µg/mL (≈ 73.6 µM) | solubility ([3]; aqueous with cosolvent or surfactant or cyclodextrin, thermodynamic from solid, 5% HP-γ-CD pH 7, measured pH 6.9): 225 µg/mL (≈ 331 µM) | solubility ([3]; aqueous with cosolvent or surfactant or cyclodextrin, 5% Kolliphor ® EL pH 5, measured pH 5.34): 1010 µg/mL (≈ 1490 µM) | solubility ([3]; aqueous with cosolvent or surfactant or cyclodextrin, 5% Kolliphor ® EL pH 6, measured pH 6.16): 740 µg/mL (≈ 1090 µM) | solubility ([3]; aqueous with cosolvent or surfactant or cyclodextrin, 5% Kolliphor ® EL pH 7, measured pH 7.01): 690 µg/mL (≈ 1020 µM) | solubility ([3]; aqueous with cosolvent or surfactant or cyclodextrin, 5% Kolliphor ® RH40, measured pH 6.91): 443 µg/mL (≈ 652 µM) | solubility ([3]; pH 7.1, aqueous with cosolvent or surfactant or cyclodextrin, 5% PEG400 pH 7, measured pH 7.10): 3 µg/mL (≈ 4.41 µM) | Mean ± SEM meibum melting temperature ([4]; 1% suspension eye drops twice a day for fourteen days, DSC peak temperature, in °C): 28.08 ± 0.2945 | Change of Tm ([4]; versus vehicle, 1% suspension twice a day, fourteen days, P value <0.0001): −2.181 ± 0.3731 | HPLC Assay (% Remaining) Average ([5]; 10-20 kGy, samples 7-9): 98.23 ± 0.01% | HPLC Assay (% Remaining) Average ([5]; 20-30 kGy, samples 10-12): 98.14 ± 0.03% | degradation of Compound 1 by HPLC ([5]; gamma irradiated, 10-20 kGy or 20-30 kGy): less than 0.5% | Appearance ([5]; gamma irradiation 10-20 kGy): White powder | HPLC Assay (% Remaining) ([5]; gamma irradiation 10-20 kGy): 98.23% and 98.24% and 98.22% | XRPD (2-Theta) ([5]; gamma irradiation 10-20 kGy): Form A | Appearance ([5]; gamma irradiation 20-30 kGy): White powder | HPLC Assay (% Remaining) ([5]; gamma irradiation 20-30 kGy): 98.17% and 98.13% and 98.11% | XRPD (2-Theta) ([5]; gamma irradiation 20-30 kGy): Form A | Appearance ([5]; non-irradiated control): White powder | HPLC Assay (% Remaining) ([5]; non-irradiated control): 98.51% and 98.48% and 98.44% and 98.46% and 98.49% and 98.50% | XRPD (2-Theta) ([5]; non-irradiated control): Form A | HPLC Assay (% Remaining) Average ([5]; non-irradiated control, samples 1-6): 98.48 ± 0.03% | degradation on steam sterilization ([5]; steam (autoclaving), data not shown): Significant degradation | solubility at 24 h ([6]; 0.25% Tyloxapol @ 24 hr, 3 mm beads): 15 µg/mL (≈ 22.1 µM) | solubility at 24 h ([6]; 0.5% Tyloxapol @ 24 hr, 3 mm beads): 76 µg/mL (≈ 112 µM) | solubility at 24 h ([6]; 1% Kolliphor ® EL @ 24 hr, 3 mm beads): 270 µg/mL (≈ 397 µM) | solubility at 24 h ([6]; 1% Kolliphor ® RH-40 @ 24 hr, 3 mm beads): 344 µg/mL (≈ 506 µM) | solubility at 24 h ([6]; 2% Kolliphor ® EL @ 24 hr, 3 mm beads): 528 µg/mL (≈ 777 µM) | solubility at 24 h ([6]; 2% Kolliphor ® RH40, @ 24 hr, 1 mm beads): 650 µg/mL (≈ 956 µM) | solubility at 24 h ([6]; 2% Kolliphor ® RH-40 @ 24 hr, 3 mm beads): 669 µg/mL (≈ 984 µM) | solubility at 24 h ([6]; 4% Kolliphor ® RH40 @ 24 hr, 1 mm beads): 1200 µg/mL (≈ 1760 µM)
